Tests used:
[1] = system: N-carboxymethyl lysine (CML); assay: Immunohistochemistry with anti-CML antibody after glyoxal glycation; set-up: species or system bovine
Procedure: As a preliminary specific chemical analysis, immunohistochemistry was performed using a standard anti-CML (AbCAM #ab27684 @ 1:5000 dilution) antibody to probe for the best-studied glycation product, N-carboxymethyl lysine, after control or anti-glycated glutaraldehyde-fixed bovine pericardium tissue discs were glycated under aggressive conditions known to efficiently generate CML (one week incubation at 37° C. in 50 mM glyoxal). Brown staining indicates presence of CML.

[2] = system: N-carboxyethyl lysine (CEL); assay: Immunohistochemistry with antibody for N-carboxyethyl lysine after methylglyoxal glycation; set-up: species or system bovine; conditions: anti-glycated vs untreated tissue
Procedure: (§1) Anti-glycation pretreatments have been performed for 1-, 2-, 4-, and 6-week-long durations for both 1,5-dihydro-2H-pyrrol-2-one as well as 4-(1-methyl-1H-imidazol-4-yl)butanal, and diversified 1-week glycation reactions have been applied to these samples. Namely, these conditions are 50 mM glyoxal, 50 mM methylglyoxal, and 50 mM glyoxal+5% human serum albumin. An antibody for N-carboxyethyl lysine, a major product of methylglyoxal glycation, was utilized for immunohistochemical staining.

[3] = system: glutaraldehyde-fixed bovine pericardium; assay: Maillard browning of anti-glycation pre-treated tissue discs after in vitro glycation; conditions: for tissue browning due to aggressive glycation: 6 weeks anti-glycation pretreatment at 37° C. (1,5 at pH 9.0), 1-week 50 mM glyoxal, methylglyoxal or glyoxal+5% human serum albumin
Procedure: A general method flow chart is described below. First, standard 0.6% glutaraldehyde fixation protocol (+/−any additional technology, e.g., anti-calcification). Second, wash protocol in phosphate-buffered saline to remove residual unreacted glutaraldehyde or other compounds. Third, incubation in subject compounds dissolved in, for example, phosphate-buffered saline at 37° C. for 6 weeks. Fourth, wash protocol in phosphate-buffered saline to remove residual unreacted anti-glycation precursor. Fifth, storage (usually in 0.2% glutaraldehyde.
as §1
“Maillard browning” is a classic and straightforward visual indicator of glycation. Formation of glycation products causes brown hues to develop in glycated tissues and proteinaceous materials. As a preliminary endpoint for initial anti-glycation efficacy studies, the inventors sought to evaluate prevention of browning due to glycation in glutaraldehyde-fixed bovine pericardium, the most common bioprosthetic heart valve biomaterial (and also widely used in other bioprosthetic implants), by pretreatment with the designed anti-glycation compounds. Short term (3-day) and long-term (6-week) protective incubation durations at physiological temperature (37° C.) were chosen as a starting point. Anti-glycation was followed by extensive washing of tissue in phosphate-buffered saline (PBS) to remove any unreacted anti-glycation precursor and extreme glycation conditions (1-week incubation in 50 mM doses of either methylglyoxal or glyoxal, two of the most reactive physiologically-relevant glycation precursors, or 50 mM glyoxal+5% human serum albumin, which exacerbates browning). Treatments and evaluation of browning have been performed with 1,5-dihydro-2H-pyrrol-2-one (“1,5,” compound 3) and 4-(1H-Imidazol-4-yl)butanal (“4IB”).

[4] = system: glutaraldehyde-fixed bovine pericardium (Glut-BP); assay: Uptake of 14C-radiolabeled glyoxal by glut-BP; conditions: 6-week pre-incubation at 37° C., 1× (7.2 μmol/mg glut-BP); 24 hours at 37° C. in 50 mM 14C-glyoxal
Procedure: FIG. 9. Bar graph of the quantitation of uptake by glutaraldehyde-fixed bovine pericardium (Glut-BP) of radioactively-labeled glycation precursor after 24 hours of incubation at 37° C. in 50 mM ^14C-radiolabeled glyoxal. Glut-BP was either kept in phosphate-buffered saline solution (PBS) in storage at 4° C. or placed in pre-incubation at 37° C. in PBS, PBS+1×1,5-dihydro-2H-pyrrol-2-one at 7.2 μmol/mg glut-BP, or PBS+1×4-(1-methyl-1H-imidazol-4-yl)butanal at 7.2 μmol/mg glut-BP.
The above interpretations are supported by quantitation of uptake of glycation precursor by glut-BP using carbon-14-radiolabeled glyoxal, which indicates approximately 15% decreases in overall glycation versus by an extreme concentration (50 mM) of glyoxal in glut-BP pre-treated by 6-week incubation at 37° C. in PBS alone or 1×1,5 or 1×4IB, shown in FIG. 9.

O=C1C=CCN1 [Compound 3, 1,5-dihydro-2H-pyrrol-2-one]
CML formation in response to glyoxal ([1]; anti-glycated vs untreated tissue): still formed similarly as in untreated tissue | CML formation ([1]; pretreatment for 6 weeks, one week incubation at 37° C. in 50 mM glyoxal): not mitigated | CEL formation in response to methylglyoxal [2]: still formed similarly as in untreated tissue | protection against optical browning ([3]; 50 mM glyoxal, 50 mM methylglyoxal, or 50 mM glyoxal+5% HSA for 7 days at 37° C.): dramatic protection | tissue browning due to aggressive glycation [3]: dramatic diminishment of tissue browning | incorporation of glycated (browned) albumin (tissue color, precursor alone vs precursor plus albumin) ([3]; 6 weeks pretreatment, 50 mM glyoxal+5% human serum albumin): effectively blocks incorporation of glycated (browned) albumin | decrease in overall glycation (uptake of 14C-glyoxal) [4]: approximately 15%

O=CCCCc1c[nH]cn1 [Compound 5, 4-(1H-Imidazol-4-yl)butanal]
tissue browning due to aggressive glycation [3]: Protection from browning is less pronounced | decrease in overall glycation (uptake of 14C-glyoxal) [4]: approximately 15%

Reference: patent publication US20220105244A1, “METHODS AND COMPOSITIONS FOR PROTECTION OF BIOPROSTHETIC HEART VALVE TISSUE FROM GLYCATION AND ASSOCIATED PROTEIN INCORPORATION” (The Trustees of Columbia University in the City of New York, priority 2019, published 2022)
